Results on 35 molecules are retold here after ChEMBL document CHEMBL1157539, “Thousands of chemical starting points for antimalarial lead identification” (Nature, 2010).

The subject of the test is Plasmodium falciparum. As to the kind of experiment: GSK_TCMDC: Inhibition of Plasmodium falciparum 3D7 in whole erythrocytes, using parasite LDH activity as an index of growth. In kind it is functional, organism-based. To be noted: Plasmodium falciparum, 3D7.

`CCn1c(-c2nonc2N)nc2c(-c3ccccc3)ncc(OCCCCNCCc3ncc[nH]3)c21` came in with an XC50 of 852 nM. Under `N#Cc1c(N)nc(SCC(=O)Nc2cc(C(F)(F)F)ccc2Cl)c(C#N)c1-c1cccs1` stands 743 nM; under `O=C(C=Cc1ccc(Cl)c(Cl)c1)NC1CCN(CCc2ccccc2)CC1`, 594 nM.

The molecule `CCCCCCCC1CC(CC(=O)Nc2ccnc3ccc(OC)cc23)CN1C(=O)OC(C)(C)C` (stereo not given) yielded an XC50 of 714 nM.

Molecule `O=C(Nc1ccc2[nH]c(-c3ccccc3)nc2c1)c1cc(-c2ccc3c(c2)OCCO3)n[nH]1` had an XC50 of 769 nM. With `CCCCN(CCCC)CCCN(CCCN(CCCC)CCCC)c1cc(C)nc(Nc2ccc(Cl)cc2)n1`, the XC50 is 370 nM. In the case of `CCCCCC(C)C(C)c1cc(O)c2c(c1)OC(C)(C)CC2(O)c1ccnn1C` (stereo not given), the XC50 was determined as 964 nM.

For the molecule `CC(C)C[C@H](NC(=O)c1cc2ccccc2s1)C(=O)N[C@H]1CCN(Cc2ccc(OCCCN(C)C)c(Cl)c2)C1`, the XC50 turned out to be 901 nM.

Molecule `O=C(c1ccc(Cl)cc1)N1CCCC(C(=O)N(Cc2nnc(-c3ccccc3Cl)o2)C2CC2)C1` (stereo not given) had an XC50 of 227 nM. Regarding `O=C(CSc1nc2ccccc2c(=O)n1C1CC1)Nc1cc(C(F)(F)F)ccc1Cl`, the XC50 came out at 108 nM.

As for `O=C(Nc1cccc(-c2nn3ccccc3c2-c2ccnc(Nc3cccc(N4CCCC4=O)c3)n2)c1)c1cc(F)ccc1F`, the XC50 turned out to be 212 nM.

Regarding `O=c1c(NCCCN(Cc2ccc(F)cc2)c2ccccn2)c(NCc2ccncc2)c1=O`, the XC50 is 153 nM. For the molecule `Clc1ccc(C=NN=c2cc[nH]c3ccccc23)cc1`, the XC50 was 723 nM. `O=[N+]([O-])c1cnc(Nc2ccccc2O)nc1Nc1ccccc1O` displayed an XC50 of 897 nM. `CN1CCC(C(=O)Nc2cccc(-c3ccc(-c4nc5cc(C(F)(F)F)ccc5[nH]4)cc3)c2)CC1`: the XC50 is 675 nM. As for `COc1cccc(O)c1CNCC(O)c1cccc(C(F)(F)F)c1` (stereo not given), the XC50 was 945 nM.

`S=C(NN=Cc1ccccn1)NC1CC2C=CC1C2` (stereo not given) registered an XC50 of 721 nM. `OC(CNc1ccnc(Nc2ccccc2)n1)c1ccc(C(F)(F)F)cc1` (stereo not given): the XC50 is 606 nM. For the molecule `Cc1ccc2nc3c(cc(C(=O)NCc4ccccc4)c(=N)n3CCCn3ccnc3)c(=O)n2c1`, the XC50 was 993 nM. Take `CS(=O)(=O)CCNCc1cccc(-c2cc3c(Nc4ccc(OCc5cccc(F)c5)c(Cl)c4)ncnc3s2)c1`: the XC50 is 198 nM. Regarding `CN1CCN(Cc2ccc(-c3ccc4ncnc(Nc5ccc(OCc6ccccc6)cc5)c4c3)o2)CC1`, the XC50 was 689 nM. `COc1ccccc1C1CCN(C2CCC(NC(=O)/C=C/c3ccc4c(c3)OC(F)(F)O4)CC2)CC1` (stereo not given) displayed an XC50 of 836 nM. Molecule `OC(CNCc1ccccc1OCc1ccccc1)c1cccc(C(F)(F)F)c1` (stereo not given) displayed an XC50 of 364 nM. `N#Cc1ccc(-c2ccc(C(=O)Nc3ccc4c(c3)CCN(C3CCC3)CC4)nc2)cc1` had an XC50 of 696 nM. Under `COc1ccc(Nc2cc(C)nc(Nc3ccc(NC(C)=O)cc3)n2)cc1` stands 865 nM; under `O=C(Nc1ccc(CCNCCCc2ccccc2)cc1)Nc1ccc(Cl)c(Cl)c1`, 273 nM; under `Cc1ccc(-c2noc(COc3ccccc3C(=O)NC3CCCC3)n2)cc1`, 882 nM. Take `CCC(=Cc1cccc([N+](=O)[O-])c1)C(=O)NCC1CCN(c2nc3cc(OC)c(OC)cc3c(=N)[nH]2)CC1`: the XC50 turned out to be 236 nM. `N#Cc1ccc(N2CCN(Cc3ccc(-c4cccc(-c5nc6ccccc6[nH]5)c4)cc3)CC2)nc1`: the XC50 turned out to be 908 nM. In the case of `O=C1Nc2ccccc2/C1=N/NC(=S)N1CCOCC1`, the XC50 came out at 910 nM. The molecule `Clc1cccnc1N1CCN(c2ncccc2Cl)CC1` came in with an XC50 of 147 nM.

`COc1ccc(CNCc2ccc(-c3ccc(-c4nc5cc(F)ccc5[nH]4)cc3)cc2)cc1` returned an XC50 of 249 nM. With `O=C(/C=C/c1ccc(Cl)c(Cl)c1)NCCCCCCN1CCCN(C(=O)Nc2ccc(Cl)c(C(F)(F)F)c2)CC1`, the XC50 worked out at 565 nM.

Molecule `COc1ccc2nccc([C@@H](O)CN3CCC(NCc4cc5ccccc5cn4)CC3)c2n1` gave an XC50 of 918 nM.

For the molecule `COc1ccc(CCc2ccc(-c3c(C)[nH]c(C)c(Cl)c3=O)cc2)cc1OC`, the XC50 was determined as 94 nM.
